Here are results for 4 compounds from ChEMBL document CHEMBL1150981, “Synthesis of new maleimide derivatives of daunorubicin and biological activity of acid labile transferrin conjugates” (Bioorg Med Chem Lett, 1997).

The source made the active and inactive calls. The calls are words filed in the database; no cut-off is given here.

A short description of series [1]: Tested for the half life period at pH 5.0. The series is classed as ADME.
Series [2] relates to MEXF989. Description: Tested for its inhibitory activity against human melanoma cells (MEFX 989) using a clonogenic assay at 0.01-1.0 uM. The class given is functional. The note with it: MEXF 989.
Series [3] has as its system LXFL 529/11. Description: Tested for its inhibitory activity against xenograft (LXFL 529/11, lung, large cell) using a clonogenic assay. The series is classed as functional, Homo sapiens.
For series [4], the system named is LXFL 529/11. Description: Tested for its inhibitory activity against xenograft (LXFL 529/11, lung, large cell) using a clonogenic assay at 0.01-1.0 uM; No activity. The series is classed as functional, cell-based. To be noted: Homo sapiens.
For series [5], the system named is MEXF989. Description: Tested for its inhibitory activity against human melanoma cells ([…]) using a clonogenic assay at 0.01-1.0 uM; […]. The series is classed as functional, cell-based.

`COc1cccc2c1C(=O)c1c(O)c3c(c(O)c1C2=O)C[C@@](O)(/C(C)=N/NC(=O)c1cccc(N2C(=O)C=CC2=O)c1)C[C@@H]3OC1CC(N)C(O)C(C)O1` (stereo not given in full): the half-life in series [1] was 20 h. Besides, in the series on MEXF989 [2], the 70% effect level (IC70) was put at 390 nM. Further, the 90% effect concentration (IC90) in the series on LXFL 529/11 [3] is less than 10 nM.
In the series on MEXF989 [2], `COc1cccc2c1C(=O)c1c(O)c3c(c(O)c1C2=O)C[C@@](O)(C(C)=O)C[C@@H]3O[C@H]1C[C@H](N)[C@H](O)[C@H](C)O1` [DAUNORUBICIN] came in with an IC70 of 260 nM. The concentration for an effect of 90% (IC90) with LXFL 529/11 [3] turned out to be 30 nM.
`COc1cccc2c1C(=O)c1c(O)c3c(c(O)c1C2=O)C[C@@](O)(/C(C)=N/NC(=O)c1ccc(CN2C(=O)C=CC2=O)cc1)C[C@@H]3OC1CC(N)C(O)C(C)O1` (stereo not given in full) gave a half-life in series [1] of 30 h. Further, in the series with MEXF989 [2], the IC70 came out at 22 nM. Moreover, the 90% effect concentration (IC90) with LXFL 529/11 [3] was less than 10 nM.
Turning to `COc1cccc2c1C(=O)c1c(O)c3c(c(O)c1C2=O)C[C@@](O)(C(C)=O)C[C@@H]3OC1CC(NC(=O)c2cccc(N3C(=O)C=CC3=O)c2)C(O)C(C)O1` (stereo not given in full), the result in the series on LXFL 529/11 [4] and in the series on MEXF989 [5] was inactive.
